What follows are molecules tested against T1, sigma-2 receptor (sigma-2 sites) (Rattus norvegicus, UniProt Q5U3Y7) (assay: Competitive displacement of [3H]-DTG binding, rat liver membranes). Settings: rat liver membranes in the presence of 100 nM (+)-pentazocine; [3H]-DTG.
T1 sequence (Q5U3Y7 1-176): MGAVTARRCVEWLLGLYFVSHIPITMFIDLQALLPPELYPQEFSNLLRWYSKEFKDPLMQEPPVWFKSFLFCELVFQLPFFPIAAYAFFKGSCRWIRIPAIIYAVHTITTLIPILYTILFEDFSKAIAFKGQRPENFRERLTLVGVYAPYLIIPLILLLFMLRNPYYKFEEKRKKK
With CCCCCCCCCCCCNCCCc1ccc([N+](=O)[O-])cc1 [3b, N-(3-(4-Nitrophenyl)propyl)dodecan-1-amine] the “KI sigma-2 sites” value was “micromolar affinities”. With CCCCCCCCCCCCNCCCc1ccccc1 [3a, N-(3-Phenylpropyl)dodecan-1-amine] the “KI sigma-2 sites” value was “micromolar affinities”.

Same assay, conditions: ratio from the KI value of sigma-1 and sigma-2 sites (membranes)
CCCCCCCCCCCCNCCCc1ccc([N+](=O)[O-])cc1 [3b, N-(3-(4-Nitrophenyl)propyl)dodecan-1-amine] showed a sigma-2/sigma-1 of 0.5. Work on CCCCCCCCCCCCNCCCc1ccccc1 [3a, N-(3-Phenylpropyl)dodecan-1-amine] yielded a sigma-2/sigma-1 of 0.4.

These molecules were tested against T2, 5HT1A (serotonin receptor subtype 1A) (Homo sapiens, UniProt P08908) (assay: NIMH PDSP secondary binding assay). Settings: KI 5HT1A, NIMH PDSP; [3H]8-OH-DPAT/0.5 nM.
T2 sequence (P08908 1-422): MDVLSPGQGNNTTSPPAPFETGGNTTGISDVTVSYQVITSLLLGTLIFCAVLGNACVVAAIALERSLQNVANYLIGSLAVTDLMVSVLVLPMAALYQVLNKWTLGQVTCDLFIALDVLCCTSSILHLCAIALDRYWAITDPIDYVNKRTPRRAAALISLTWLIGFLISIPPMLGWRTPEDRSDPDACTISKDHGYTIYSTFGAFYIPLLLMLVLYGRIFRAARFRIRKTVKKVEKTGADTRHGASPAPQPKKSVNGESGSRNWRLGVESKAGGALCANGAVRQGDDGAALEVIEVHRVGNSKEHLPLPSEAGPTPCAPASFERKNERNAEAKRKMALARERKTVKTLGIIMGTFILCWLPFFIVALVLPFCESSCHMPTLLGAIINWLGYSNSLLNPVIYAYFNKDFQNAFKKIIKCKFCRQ
Work on CCCCCCCCCCCCNCCCc1ccc([N+](=O)[O-])cc1 [3b, N-(3-(4-Nitrophenyl)propyl)dodecan-1-amine] yielded a Ki of 0.04 µM. For CCCCCCCCCCCCNCCCc1ccccc1 [3a, N-(3-Phenylpropyl)dodecan-1-amine], the Ki was > 10 µM.

These molecules were tested on Du145 (assay: Multiplex cytotoxicity assay). Settings: Homo sapiens, DU-145, read-out: IC50 Du145.
Type: cell-based
Work on CCCCCCCCCCCCNCCCc1ccc([N+](=O)[O-])cc1 [3b, N-(3-(4-Nitrophenyl)propyl)dodecan-1-amine] yielded an IC50 of 17 ± 0.4 µM. Work on CCCCCCCCCCCCNCCCc1ccccc1 [3a, N-(3-Phenylpropyl)dodecan-1-amine] yielded an IC50 of 51 ± 4 µM.

The molecules below were run on HT-29 (assay: Multiplex cytotoxicity assay). Settings: Homo sapiens, HT-29, read-out: IC50 HT-29.
Type: cell-based
CCCCCCCCCCCCNCCCc1ccc([N+](=O)[O-])cc1 [3b, N-(3-(4-Nitrophenyl)propyl)dodecan-1-amine] was tested, and the IC50 was 14 ± 0.2 µM. CCCCCCCCCCCCNCCCc1ccccc1 [3a, N-(3-Phenylpropyl)dodecan-1-amine] showed an IC50 of 42 ± 21 µM.

What follows are molecules tested against M1 (muscarinic acetylcholine receptor type 1) (Homo sapiens, UniProt P11229) (assay: NIMH PDSP secondary binding assay). Settings: not given.
M1 (muscarinic acetylcholine receptor type 1), sequence (P11229 whole entry): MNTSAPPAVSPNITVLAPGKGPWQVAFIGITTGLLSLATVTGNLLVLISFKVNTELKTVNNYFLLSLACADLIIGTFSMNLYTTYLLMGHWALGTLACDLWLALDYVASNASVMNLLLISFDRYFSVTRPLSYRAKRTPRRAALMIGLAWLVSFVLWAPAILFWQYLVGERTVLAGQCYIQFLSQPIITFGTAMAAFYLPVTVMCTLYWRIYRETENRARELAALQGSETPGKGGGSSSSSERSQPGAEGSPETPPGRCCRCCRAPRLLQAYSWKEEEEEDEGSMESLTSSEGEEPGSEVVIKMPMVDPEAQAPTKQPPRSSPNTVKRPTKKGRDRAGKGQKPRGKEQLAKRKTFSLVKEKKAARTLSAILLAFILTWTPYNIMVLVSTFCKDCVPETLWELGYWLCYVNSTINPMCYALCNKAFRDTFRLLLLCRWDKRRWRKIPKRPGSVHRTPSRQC
With CCCCCCCCCCCCNCCCc1ccc([N+](=O)[O-])cc1 [3b, N-(3-(4-Nitrophenyl)propyl)dodecan-1-amine] the Ki was > 10 µM. CCCCCCCCCCCCNCCCc1ccccc1 [3a, N-(3-Phenylpropyl)dodecan-1-amine] was tested, and the Ki was > 10 µM.

What follows are molecules tested against 5HT7 (serotonin receptor subtype 7) (Homo sapiens, UniProt P34969) (assay: NIMH PDSP secondary binding assay). Settings: not given.
5HT7 (serotonin receptor subtype 7), sequence (P34969 whole entry, species assumed): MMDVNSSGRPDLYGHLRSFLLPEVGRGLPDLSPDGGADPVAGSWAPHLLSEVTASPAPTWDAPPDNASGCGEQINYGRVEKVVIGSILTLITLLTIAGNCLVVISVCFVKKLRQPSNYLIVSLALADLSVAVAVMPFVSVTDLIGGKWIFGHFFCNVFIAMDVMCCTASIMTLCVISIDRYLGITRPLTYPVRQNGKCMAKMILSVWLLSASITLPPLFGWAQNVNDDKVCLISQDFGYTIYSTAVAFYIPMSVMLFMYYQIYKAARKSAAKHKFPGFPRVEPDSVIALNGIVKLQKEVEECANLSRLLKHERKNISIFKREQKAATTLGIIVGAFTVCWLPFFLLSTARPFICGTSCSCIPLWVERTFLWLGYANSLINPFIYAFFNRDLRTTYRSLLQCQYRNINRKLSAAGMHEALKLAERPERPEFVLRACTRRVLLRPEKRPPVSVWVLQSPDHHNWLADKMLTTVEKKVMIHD
For CCCCCCCCCCCCNCCCc1ccc([N+](=O)[O-])cc1 [3b, N-(3-(4-Nitrophenyl)propyl)dodecan-1-amine], the Ki was > 10 µM. In the case of CCCCCCCCCCCCNCCCc1ccccc1 [3a, N-(3-Phenylpropyl)dodecan-1-amine], the Ki is reported as > 10 µM.

The molecules below were run on caspases 3/7, 8, and 9 (assay: Caspase activation potential). Settings: data not shown.
Type: cell-based
For CCCCCCCCCCCCNCCCc1ccc([N+](=O)[O-])cc1 [3b, N-(3-(4-Nitrophenyl)propyl)dodecan-1-amine], the “activation of caspases 3/7, 8, and 9” value was “did not activate”. For CCCCCCCCCCCCNCCCc1ccccc1 [3a, N-(3-Phenylpropyl)dodecan-1-amine], the “activation of caspases 3/7, 8, and 9” value was “did not activate”.

What follows are molecules tested on MDA-MB-231 (assay: Multiplex cytotoxicity assay). Settings: Homo sapiens, MDA-MB-231, read-out: IC50 MDA-MB-231.
Type: cell-based
In the case of CCCCCCCCCCCCNCCCc1ccc([N+](=O)[O-])cc1 [3b, N-(3-(4-Nitrophenyl)propyl)dodecan-1-amine], the IC50 is reported as 15 ± 1 µM. Work on CCCCCCCCCCCCNCCCc1ccccc1 [3a, N-(3-Phenylpropyl)dodecan-1-amine] yielded an IC50 of 54 ± 3 µM.

The molecules below were run against D1 (dopamine receptor type 1) (Homo sapiens, UniProt P21728) (assay: NIMH PDSP secondary binding assay). Settings: not given.
D1 (dopamine receptor type 1), sequence (P21728 whole entry): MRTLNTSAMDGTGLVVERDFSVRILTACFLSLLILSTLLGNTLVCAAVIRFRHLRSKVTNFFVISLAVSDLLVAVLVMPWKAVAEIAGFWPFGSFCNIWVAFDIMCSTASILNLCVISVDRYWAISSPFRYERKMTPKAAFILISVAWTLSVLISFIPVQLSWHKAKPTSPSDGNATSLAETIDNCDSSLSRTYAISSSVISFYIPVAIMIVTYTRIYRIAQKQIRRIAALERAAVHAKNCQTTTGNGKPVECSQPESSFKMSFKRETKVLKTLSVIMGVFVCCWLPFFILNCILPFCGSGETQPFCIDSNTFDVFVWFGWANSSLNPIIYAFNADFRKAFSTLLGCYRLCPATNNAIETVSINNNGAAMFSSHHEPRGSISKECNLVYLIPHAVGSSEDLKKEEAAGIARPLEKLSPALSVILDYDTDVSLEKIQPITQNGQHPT
For CCCCCCCCCCCCNCCCc1ccc([N+](=O)[O-])cc1 [3b, N-(3-(4-Nitrophenyl)propyl)dodecan-1-amine], the Ki was > 10 µM. CCCCCCCCCCCCNCCCc1ccccc1 [3a, N-(3-Phenylpropyl)dodecan-1-amine] was tested, and the Ki was > 10 µM.

What follows are molecules tested on A549 (assay: Multiplex cytotoxicity assay). Settings: Homo sapiens, A549, read-out: IC50 A549.
Type: cell-based
CCCCCCCCCCCCNCCCc1ccc([N+](=O)[O-])cc1 [3b, N-(3-(4-Nitrophenyl)propyl)dodecan-1-amine] was tested, and the IC50 was 29 ± 1 µM. CCCCCCCCCCCCNCCCc1ccccc1 [3a, N-(3-Phenylpropyl)dodecan-1-amine] gave an IC50 of 87 ± 70 µM.

Each molecule was assayed against T3, α-1A (α-adrenergic receptor subtype 1A) (Homo sapiens, UniProt P35348) (assay: NIMH PDSP secondary binding assay). Settings: not given.
T3 sequence (P35348 1-466): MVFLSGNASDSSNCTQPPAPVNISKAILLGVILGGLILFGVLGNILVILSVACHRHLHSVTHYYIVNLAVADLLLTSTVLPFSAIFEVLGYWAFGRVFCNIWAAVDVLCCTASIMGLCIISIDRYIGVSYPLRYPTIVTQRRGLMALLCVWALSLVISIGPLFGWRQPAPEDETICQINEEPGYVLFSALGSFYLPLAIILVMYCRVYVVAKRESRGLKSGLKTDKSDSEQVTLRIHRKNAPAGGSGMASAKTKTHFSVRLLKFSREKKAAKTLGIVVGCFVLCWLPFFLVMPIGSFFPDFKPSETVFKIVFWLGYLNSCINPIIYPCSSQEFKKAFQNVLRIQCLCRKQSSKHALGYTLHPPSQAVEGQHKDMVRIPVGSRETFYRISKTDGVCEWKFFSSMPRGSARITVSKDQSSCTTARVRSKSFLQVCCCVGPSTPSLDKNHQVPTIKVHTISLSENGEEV
CCCCCCCCCCCCNCCCc1ccc([N+](=O)[O-])cc1 [3b, N-(3-(4-Nitrophenyl)propyl)dodecan-1-amine] was tested, and the Ki was > 10 µM. With CCCCCCCCCCCCNCCCc1ccccc1 [3a, N-(3-Phenylpropyl)dodecan-1-amine] the Ki was > 10 µM.

These molecules were tested against β-2 (β-adrenergic receptor subtype 2) (Homo sapiens, UniProt P07550) (assay: NIMH PDSP secondary binding assay). Settings: not given.
β-2 (β-adrenergic receptor subtype 2), sequence (P07550 whole entry): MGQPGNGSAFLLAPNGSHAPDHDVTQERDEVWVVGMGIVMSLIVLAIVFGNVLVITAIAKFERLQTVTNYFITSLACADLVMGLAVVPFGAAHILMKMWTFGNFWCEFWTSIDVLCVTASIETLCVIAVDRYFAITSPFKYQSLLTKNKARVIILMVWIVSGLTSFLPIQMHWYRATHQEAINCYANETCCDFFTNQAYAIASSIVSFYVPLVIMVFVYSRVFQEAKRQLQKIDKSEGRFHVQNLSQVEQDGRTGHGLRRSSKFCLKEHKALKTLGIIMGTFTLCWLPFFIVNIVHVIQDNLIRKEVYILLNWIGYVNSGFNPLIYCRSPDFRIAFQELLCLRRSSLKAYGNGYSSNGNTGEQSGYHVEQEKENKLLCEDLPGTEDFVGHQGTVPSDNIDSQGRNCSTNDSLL
For CCCCCCCCCCCCNCCCc1ccc([N+](=O)[O-])cc1 [3b, N-(3-(4-Nitrophenyl)propyl)dodecan-1-amine], the Ki was > 10 µM. For CCCCCCCCCCCCNCCCc1ccccc1 [3a, N-(3-Phenylpropyl)dodecan-1-amine], the Ki was > 10 µM.

Each molecule was assayed against 5HT2B (serotonin receptor subtype 2B) (Homo sapiens, UniProt P41595) (assay: NIMH PDSP secondary binding assay). Settings: not given.
5HT2B (serotonin receptor subtype 2B), sequence (P41595 whole entry, species assumed): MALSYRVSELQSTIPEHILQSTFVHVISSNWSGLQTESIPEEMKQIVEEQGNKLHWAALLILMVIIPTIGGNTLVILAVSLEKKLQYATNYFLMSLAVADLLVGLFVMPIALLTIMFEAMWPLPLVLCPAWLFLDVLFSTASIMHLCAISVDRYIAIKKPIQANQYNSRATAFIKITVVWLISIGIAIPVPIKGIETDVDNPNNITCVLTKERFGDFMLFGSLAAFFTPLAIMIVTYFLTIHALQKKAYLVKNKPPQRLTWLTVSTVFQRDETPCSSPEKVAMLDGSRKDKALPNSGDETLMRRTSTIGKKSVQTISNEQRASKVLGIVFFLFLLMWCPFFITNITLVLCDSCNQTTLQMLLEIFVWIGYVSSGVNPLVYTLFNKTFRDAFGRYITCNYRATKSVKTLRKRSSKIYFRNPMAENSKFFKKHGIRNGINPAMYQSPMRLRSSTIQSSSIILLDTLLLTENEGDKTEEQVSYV
In the case of CCCCCCCCCCCCNCCCc1ccc([N+](=O)[O-])cc1 [3b, N-(3-(4-Nitrophenyl)propyl)dodecan-1-amine], the Ki is reported as 7.9 µM. For CCCCCCCCCCCCNCCCc1ccccc1 [3a, N-(3-Phenylpropyl)dodecan-1-amine], the Ki was > 10 µM.

What follows are molecules tested on HCT-15 (assay: Multiplex cytotoxicity assay). Settings: Homo sapiens, HCT-15, read-out: IC50 HCT-15.
Type: cell-based
CCCCCCCCCCCCNCCCc1ccc([N+](=O)[O-])cc1 [3b, N-(3-(4-Nitrophenyl)propyl)dodecan-1-amine] showed an IC50 of 25 µM. In the case of CCCCCCCCCCCCNCCCc1ccccc1 [3a, N-(3-Phenylpropyl)dodecan-1-amine], the IC50 is reported as > 100 µM.

These molecules were tested on NCI-H460 (assay: Multiplex cytotoxicity assay). Settings: Homo sapiens, NCI-H460, read-out: IC50 NCI-H460.
Type: cell-based
CCCCCCCCCCCCNCCCc1ccc([N+](=O)[O-])cc1 [3b, N-(3-(4-Nitrophenyl)propyl)dodecan-1-amine] showed an IC50 of 18 ± 2 µM. CCCCCCCCCCCCNCCCc1ccccc1 [3a, N-(3-Phenylpropyl)dodecan-1-amine] showed an IC50 of 55 ± 3 µM.

What follows are molecules tested on SK-OV-3 (assay: Multiplex cytotoxicity assay). Settings: Homo sapiens, SK-OV-3, read-out: IC50 SK-OV-3.
Type: cell-based
CCCCCCCCCCCCNCCCc1ccc([N+](=O)[O-])cc1 [3b, N-(3-(4-Nitrophenyl)propyl)dodecan-1-amine] was tested, and the IC50 was 16 ± 1 µM. Work on CCCCCCCCCCCCNCCCc1ccccc1 [3a, N-(3-Phenylpropyl)dodecan-1-amine] yielded an IC50 of 60 ± 7 µM.

What follows are molecules tested on MCF-10A (assay: Multiplex cytotoxicity assay). Settings: Homo sapiens, read-out: IC50 MCF-10A.
Type: cell-based
For CCCCCCCCCCCCNCCCc1ccc([N+](=O)[O-])cc1 [3b, N-(3-(4-Nitrophenyl)propyl)dodecan-1-amine], the IC50 was 15 ± 1 µM. CCCCCCCCCCCCNCCCc1ccccc1 [3a, N-(3-Phenylpropyl)dodecan-1-amine] showed an IC50 of 53 ± 18 µM.

These molecules were tested on H1299 (assay: Multiplex cytotoxicity assay). Settings: Homo sapiens, NCI-H1299, read-out: IC50 H1299.
Type: cell-based
For CCCCCCCCCCCCNCCCc1ccc([N+](=O)[O-])cc1 [3b, N-(3-(4-Nitrophenyl)propyl)dodecan-1-amine], the IC50 was 13 ± 1 µM. In the case of CCCCCCCCCCCCNCCCc1ccccc1 [3a, N-(3-Phenylpropyl)dodecan-1-amine], the IC50 is reported as 39 ± 0.1 µM.

Each molecule was assayed on MCF-7 (assay: Multiplex cytotoxicity assay). Settings: Homo sapiens, MCF7, read-out: IC50 MCF-7.
Type: cell-based
For CCCCCCCCCCCCNCCCc1ccc([N+](=O)[O-])cc1 [3b, N-(3-(4-Nitrophenyl)propyl)dodecan-1-amine], the IC50 was 12 ± 1 µM. CCCCCCCCCCCCNCCCc1ccccc1 [3a, N-(3-Phenylpropyl)dodecan-1-amine] showed an IC50 of 50 ± 18 µM.

These molecules were tested against NET (norepinephrine transporter) (Homo sapiens, UniProt P23975) (assay: NIMH PDSP secondary binding assay). Settings: not given.
NET (norepinephrine transporter), sequence (P23975 whole entry, species assumed): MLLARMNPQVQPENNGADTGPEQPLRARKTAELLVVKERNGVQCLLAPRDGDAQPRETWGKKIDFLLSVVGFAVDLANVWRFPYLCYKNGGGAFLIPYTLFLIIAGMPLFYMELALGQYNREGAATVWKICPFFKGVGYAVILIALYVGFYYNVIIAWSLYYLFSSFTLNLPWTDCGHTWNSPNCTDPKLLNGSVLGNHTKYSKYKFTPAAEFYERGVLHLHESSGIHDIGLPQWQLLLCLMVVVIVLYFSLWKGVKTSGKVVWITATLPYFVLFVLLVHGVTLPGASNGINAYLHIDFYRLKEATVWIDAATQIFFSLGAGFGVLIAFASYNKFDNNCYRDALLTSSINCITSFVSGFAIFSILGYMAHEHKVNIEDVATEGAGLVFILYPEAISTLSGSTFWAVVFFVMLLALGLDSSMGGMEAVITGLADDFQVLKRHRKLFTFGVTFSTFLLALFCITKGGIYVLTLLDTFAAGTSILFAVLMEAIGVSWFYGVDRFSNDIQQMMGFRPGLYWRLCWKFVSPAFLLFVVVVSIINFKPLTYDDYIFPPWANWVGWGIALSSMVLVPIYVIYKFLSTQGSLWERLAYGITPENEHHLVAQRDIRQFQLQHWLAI
CCCCCCCCCCCCNCCCc1ccc([N+](=O)[O-])cc1 [3b, N-(3-(4-Nitrophenyl)propyl)dodecan-1-amine] was tested, and the Ki was > 10 µM. For CCCCCCCCCCCCNCCCc1ccccc1 [3a, N-(3-Phenylpropyl)dodecan-1-amine], the Ki was > 10 µM.

Each molecule was assayed against SERT (serotonin transporter) (Homo sapiens, UniProt P31645) (assay: NIMH PDSP secondary binding assay). Settings: not given.
SERT (serotonin transporter), sequence (P31645 whole entry, species assumed): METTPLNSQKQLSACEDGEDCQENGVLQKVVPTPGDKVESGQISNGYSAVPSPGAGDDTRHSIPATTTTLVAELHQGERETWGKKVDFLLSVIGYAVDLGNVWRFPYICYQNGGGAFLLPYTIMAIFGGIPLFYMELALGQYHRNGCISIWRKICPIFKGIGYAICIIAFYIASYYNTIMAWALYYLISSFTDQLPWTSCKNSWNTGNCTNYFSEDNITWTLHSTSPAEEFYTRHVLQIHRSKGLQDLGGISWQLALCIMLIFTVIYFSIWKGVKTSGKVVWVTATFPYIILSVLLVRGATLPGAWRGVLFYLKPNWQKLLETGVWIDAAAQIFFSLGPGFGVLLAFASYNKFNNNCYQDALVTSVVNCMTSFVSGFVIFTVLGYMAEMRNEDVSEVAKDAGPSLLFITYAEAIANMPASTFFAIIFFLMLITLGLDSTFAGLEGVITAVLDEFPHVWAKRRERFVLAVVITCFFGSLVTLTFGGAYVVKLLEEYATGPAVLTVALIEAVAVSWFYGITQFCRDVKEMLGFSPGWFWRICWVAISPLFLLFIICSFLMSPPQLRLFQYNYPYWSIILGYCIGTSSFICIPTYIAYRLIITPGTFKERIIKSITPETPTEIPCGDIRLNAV
CCCCCCCCCCCCNCCCc1ccc([N+](=O)[O-])cc1 [3b, N-(3-(4-Nitrophenyl)propyl)dodecan-1-amine] showed a Ki of 0.7 µM. With CCCCCCCCCCCCNCCCc1ccccc1 [3a, N-(3-Phenylpropyl)dodecan-1-amine] the Ki was > 10 µM.

These molecules were tested against T4, Sig-2R, sigma-2 receptor (Rattus norvegicus, UniProt Q5U3Y7) (assay: NIMH PDSP secondary binding assay). Settings: not given.
T4 sequence (Q5U3Y7 1-176): T1 sequence (Q5U3Y7 1-176)
For CCCCCCCCCCCCNCCCc1ccc([N+](=O)[O-])cc1 [3b, N-(3-(4-Nitrophenyl)propyl)dodecan-1-amine], the Ki was 0.27 µM. Work on CCCCCCCCCCCCNCCCc1ccccc1 [3a, N-(3-Phenylpropyl)dodecan-1-amine] yielded a Ki of 3.6 µM.

Each molecule was assayed against H3 (histamine receptor type 3) (Homo sapiens, UniProt Q9Y5N1) (assay: NIMH PDSP secondary binding assay). Settings: not given.
H3 (histamine receptor type 3), sequence (Q9Y5N1 whole entry): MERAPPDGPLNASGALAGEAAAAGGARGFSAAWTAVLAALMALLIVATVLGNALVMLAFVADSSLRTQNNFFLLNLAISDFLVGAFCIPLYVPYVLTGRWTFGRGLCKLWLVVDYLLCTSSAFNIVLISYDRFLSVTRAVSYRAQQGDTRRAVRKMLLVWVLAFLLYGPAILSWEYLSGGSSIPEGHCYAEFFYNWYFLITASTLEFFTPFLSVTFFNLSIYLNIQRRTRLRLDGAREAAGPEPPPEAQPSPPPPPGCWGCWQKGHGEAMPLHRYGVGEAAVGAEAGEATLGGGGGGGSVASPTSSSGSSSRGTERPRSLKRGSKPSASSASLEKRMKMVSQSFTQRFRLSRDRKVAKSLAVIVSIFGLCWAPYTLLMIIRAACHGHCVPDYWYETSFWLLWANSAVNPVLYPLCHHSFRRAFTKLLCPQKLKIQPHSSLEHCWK
CCCCCCCCCCCCNCCCc1ccc([N+](=O)[O-])cc1 [3b, N-(3-(4-Nitrophenyl)propyl)dodecan-1-amine] was tested, and the Ki was > 10 µM. For CCCCCCCCCCCCNCCCc1ccccc1 [3a, N-(3-Phenylpropyl)dodecan-1-amine], the Ki was > 10 µM.

These molecules were tested against Sig-1R, sigma-1 receptor (Rattus norvegicus, UniProt Q9R0C9) (assay: NIMH PDSP secondary binding assay). Settings: not given.
Sig-1R, sigma-1 receptor, sequence (Q9R0C9 whole entry): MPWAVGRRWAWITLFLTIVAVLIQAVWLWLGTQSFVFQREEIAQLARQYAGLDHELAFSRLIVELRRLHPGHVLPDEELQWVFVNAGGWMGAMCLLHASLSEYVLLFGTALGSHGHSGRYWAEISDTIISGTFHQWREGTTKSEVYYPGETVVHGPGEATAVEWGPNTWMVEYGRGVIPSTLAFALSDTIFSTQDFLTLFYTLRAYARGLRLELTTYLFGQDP
With CCCCCCCCCCCCNCCCc1ccc([N+](=O)[O-])cc1 [3b, N-(3-(4-Nitrophenyl)propyl)dodecan-1-amine] the Ki was 0.2 µM. In the case of CCCCCCCCCCCCNCCCc1ccccc1 [3a, N-(3-Phenylpropyl)dodecan-1-amine], the Ki is reported as 1.5 µM.

Each molecule was assayed on SF-268 (assay: Multiplex cytotoxicity assay). Settings: Homo sapiens, SF-268, read-out: IC50 SF-268.
Type: cell-based
Work on CCCCCCCCCCCCNCCCc1ccc([N+](=O)[O-])cc1 [3b, N-(3-(4-Nitrophenyl)propyl)dodecan-1-amine] yielded an IC50 of 16 ± 1 µM. For CCCCCCCCCCCCNCCCc1ccccc1 [3a, N-(3-Phenylpropyl)dodecan-1-amine], the IC50 was 60 ± 14 µM.

These molecules were tested against β-3 (β-adrenergic receptor subtype 3) (Homo sapiens, UniProt P13945) (assay: NIMH PDSP secondary binding assay). Settings: not given.
β-3 (β-adrenergic receptor subtype 3), sequence (P13945 whole entry): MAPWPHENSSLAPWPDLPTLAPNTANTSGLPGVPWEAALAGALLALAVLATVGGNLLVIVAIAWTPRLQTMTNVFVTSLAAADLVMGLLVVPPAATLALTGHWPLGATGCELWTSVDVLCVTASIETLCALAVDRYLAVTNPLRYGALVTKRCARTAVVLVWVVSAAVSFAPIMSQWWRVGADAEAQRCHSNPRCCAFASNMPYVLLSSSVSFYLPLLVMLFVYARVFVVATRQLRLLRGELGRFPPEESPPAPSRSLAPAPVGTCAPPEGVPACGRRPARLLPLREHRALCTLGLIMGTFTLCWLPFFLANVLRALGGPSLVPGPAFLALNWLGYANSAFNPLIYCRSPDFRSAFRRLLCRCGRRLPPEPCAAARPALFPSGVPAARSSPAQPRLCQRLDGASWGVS
In the case of CCCCCCCCCCCCNCCCc1ccc([N+](=O)[O-])cc1 [3b, N-(3-(4-Nitrophenyl)propyl)dodecan-1-amine], the Ki is reported as > 10 µM. With CCCCCCCCCCCCNCCCc1ccccc1 [3a, N-(3-Phenylpropyl)dodecan-1-amine] the Ki was > 10 µM.

— paper PMC3234165 (Biochemistry, 2011)
